Literature values as cited in patent publication EP4729530A1, “NOVEL PEPTIDE AND USE THEREOF” (Gemvax & Kael Co., Ltd., priority 2023, dated 2024).

Columns and labels:
[1] = read-out: cytotoxicity (GI50); cited from earlier work
tau = tau (Homo sapiens, UniProt P10636); settings: read-out: tau aggregation inhibition range (EC50); cited from earlier work
Chain of tau (P10636 whole entry): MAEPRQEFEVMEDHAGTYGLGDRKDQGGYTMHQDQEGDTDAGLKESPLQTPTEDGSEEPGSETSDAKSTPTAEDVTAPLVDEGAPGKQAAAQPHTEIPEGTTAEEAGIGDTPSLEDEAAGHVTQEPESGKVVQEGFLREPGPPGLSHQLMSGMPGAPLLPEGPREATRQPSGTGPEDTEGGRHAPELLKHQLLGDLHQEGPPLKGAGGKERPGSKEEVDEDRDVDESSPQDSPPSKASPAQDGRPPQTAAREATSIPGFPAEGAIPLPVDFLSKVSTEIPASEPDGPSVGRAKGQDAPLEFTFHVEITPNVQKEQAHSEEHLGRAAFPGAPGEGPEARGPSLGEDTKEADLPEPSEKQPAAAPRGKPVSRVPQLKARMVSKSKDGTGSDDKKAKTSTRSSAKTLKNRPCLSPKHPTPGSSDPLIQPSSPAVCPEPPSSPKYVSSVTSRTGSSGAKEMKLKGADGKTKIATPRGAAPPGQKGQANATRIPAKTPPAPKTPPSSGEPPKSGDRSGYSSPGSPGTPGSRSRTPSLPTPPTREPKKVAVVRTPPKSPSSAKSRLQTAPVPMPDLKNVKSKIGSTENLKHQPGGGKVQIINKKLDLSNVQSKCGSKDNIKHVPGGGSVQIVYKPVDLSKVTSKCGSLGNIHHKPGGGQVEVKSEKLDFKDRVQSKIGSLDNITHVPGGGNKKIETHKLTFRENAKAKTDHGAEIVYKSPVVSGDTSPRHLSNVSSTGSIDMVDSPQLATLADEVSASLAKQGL

Which GI50 [1] does the source give for CN(C)c1ccc2c(c1)Sc1cc(N(C)C)ccc1N2 [LMTM] here?
Its GI50 is 6.4 ± 0.3 µM.

What about the EC50 (tau) of the same compound?
Its EC50 is 2.2 ± 0.2 µM.
